# Measured values: patent US9730929B2, “Substituted aminoimidazopyridazines” (BAYER INTELLECTUAL PROPERTY GMBH, priority 2011, dated 2017)
# Biological target: T1, human full-length MKNK1 (Homo sapiens (Human), UniProt Q9BUB5, T344D)
# Assay: MKNK1 kinase high ATP assay (TR-FRET, 2 mM ATP)
# Format: biochemical
# Conditions: ATP final conc. 2 mM; 15 min preincubation
# Protocol: MKNK1-inhibitory activity at high ATP of compounds of the present invention after their preincubation with MKNK1 was quantified employing the TR-FRET-based MKNK1 high ATP assay as described in the following paragraphs.
# As substrate for the kinase reaction the biotinylated peptide biotin-Ahx-[…] (C-terminus in amide form) was used, which can be purchased e.g. from the company Biosyntan (Berlin-Buch, Germany).
# (§1) For the assay 50 nL of a 100 fold concentrated solution of the test compound in DMSO was pipetted into a black low volume 384 well microtiter plate (Greiner Bio-One, Frickenhausen, Germany), 2 μL of a solution of MKNK1 in aqueous assay buffer [50 mM HEPES pH 7.5, 5 mM magnesium chloride, 1.0 mM dithiothreitol, 0.005% (v/v) Nonidet-P40 (Sigma)] was added and the mixture was incubated for 15 min at 22° C. to allow pre-binding of the test compounds to the enzyme before the start of the kinase reaction. Then the kinase reaction was started by the addition of 3 μL of a solution of adenosine-tri-phosphate (ATP, 3.3 mM=>final conc. in the 5 μL assay volume is 2 mM) and substrate (0.1 μM=>final conc. in the 5 μL assay volume is 0.06 μM) in assay buffer and the resulting mixture was incubated for a reaction time of 30 min at 22° C. The concentration of MKNK1 was adjusted depending of the activity of the enzyme lot and was chosen appropriate to have the assay in the linear range, typical concentrations were in the range of 0.003 μg/mL. The reaction was stopped by the addition of 5 μL of a solution of TR-FRET detection reagents (5 nM streptavidine-XL665 [Cisbio Bioassays, Codolet, France] and 1 nM anti-ribosomal protein S6 (pSer236)-antibody from Invitrogen [#44921G] and 1 nM LANCE EU-W1024 labeled ProteinG [Perkin-Elmer, product no. 4D0071]) in an aqueous EDTA-solution (100 mM EDTA, 0.1% (w/v) bovine serum albumin in 50 mM HEPES pH 7.5).
# The resulting mixture was incubated for 1 h at 22° C. to allow the formation of complex between the phosphorylated biotinylated peptide and the detection reagents. Subsequently the amount of phosphorylated substrate was evaluated by measurement of the resonance energy transfer from the Eu-chelate to the streptavidine-XL.
# T1 sequence (Q9BUB5 other isoform, or with tags, fused parts or gaps T344D): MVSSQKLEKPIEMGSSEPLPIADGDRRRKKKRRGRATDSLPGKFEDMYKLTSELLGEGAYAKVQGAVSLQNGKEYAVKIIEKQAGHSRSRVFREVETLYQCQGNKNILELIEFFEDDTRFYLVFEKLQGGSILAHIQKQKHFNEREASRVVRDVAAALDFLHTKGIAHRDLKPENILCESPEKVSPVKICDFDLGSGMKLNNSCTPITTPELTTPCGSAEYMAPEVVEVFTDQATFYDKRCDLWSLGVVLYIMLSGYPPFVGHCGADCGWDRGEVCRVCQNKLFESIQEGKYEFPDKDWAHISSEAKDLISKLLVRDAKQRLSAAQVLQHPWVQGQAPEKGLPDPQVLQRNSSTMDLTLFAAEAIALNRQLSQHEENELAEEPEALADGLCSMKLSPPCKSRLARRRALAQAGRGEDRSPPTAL
row,Compound,IC50 [nM]
1,"CN(CC(O)c1ccccc1)c1ccc2ncc(-c3cc4ccccc4o3)n2n1 (single isomer, unassigned; (+)) [Example 13, (+)-2-{[3-(1-Benzofuran-2-yl)imidazo[1,2-b]pyridazin-6-yl](methyl)amino}-1-phenylethanol]",24
2,"CN(CC(O)c1ccccc1)c1ccc2ncc(-c3cc4ccccc4o3)n2n1 (single isomer, unassigned; (-)) [Example 12, (−)-2-{[3-(1-Benzofuran-2-yl)imidazo[1,2-b]pyridazin-6-yl](methyl)amino}-1-phenylethanol]",4
3,CCN(CCO)c1ccc2ncc(-c3cc4ccccc4o3)n2n1 [Example 1],20
4,"COc1cccc2oc(-c3cnc4ccc(N(C)C[C@H](O)c5cccc(O)c5)nn34)cc12 [Example 9, 3-[(1R)-1-Hydroxy-2-{[3-(4-methoxy-1-benzofuran-2-yl)imidazo[1,2-b]pyridazin-6-yl](methyl)amino}eth-yl]phenol]",4
5,"CN(CC(O)c1ccccc1)c1ccc2ncc(-c3cc4ccccc4o3)n2n1 (stereo not shown) [Example 10, 2-{[3-(1-Benzofuran-2-yl)imidazo[1,2-b]pyridazin-6-yl](methyl)amino}-1-phenylethanol]",4
6,"CN(CC(O)c1cccnc1)c1ccc2ncc(-c3cc4ccccc4o3)n2n1 (stereo not shown) [Example 11, 2-{[3-(1-Benzofuran-2-yl)imidazo[1,2-b]pyridazin-6-yl](methyl)amino}-1-(pyridin-3-yl)ethanol]",2
7,"CC(O)CN(C)c1ccc2ncc(-c3cc4ccccc4o3)n2n1 (stereo not shown) [Example 14, 1-{[3-(1-Benzofuran-2-yl)imidazo[1,2-b]pyridazin-6-yl](methyl)amino}propan-2-ol]",9
8,"COc1nccc2oc(-c3cnc4ccc(N(C)CC(C)O)nn34)cc12 (stereo not shown) [Example 15, 1-{[3-(4-Methoxyfuro[3,2-c]pyridin-2-yl)imidazo[1,2-b]pyridazin-6-yl](methyl)amino}propan-2-ol]",10
9,"OC(CN(c1ccc2ncc(-c3cc4ccccc4o3)n2n1)C1CC1)c1ccccc1 (stereo not shown) [Example 16, 2-{[3-(1-Benzofuran-2-yl)imidazo[1,2-b]pyridazin-6-yl](cyclopropyl)amino}-1-phenylethanol]",24
10,"COc1nccc2oc(-c3cnc4ccc(N(C)C(C)CO)nn34)cc12 (stereo not shown) [Example 17, 2-{[3-(4-Methoxyfuro[3,2-c]pyridin-2-yl)imidazo[1,2-b]pyridazin-6-yl](methyl)amino}propan-1-ol]",26
11,"OC(CN(c1ccc2ncc(-c3cc4ccccc4o3)n2n1)C1CC1)c1ccc(F)cc1 (stereo not shown) [Example 18, 2-{[3-(1-Benzofuran-2-yl)imidazo[1,2-b]pyridazin-6-yl](cyclopropyl)amino}-1-(4-fluorophenyl)ethanol]",42
12,"CC(CO)N(C)c1ccc2ncc(-c3cc4ccccc4o3)n2n1 (stereo not shown) [Example 19, 2-{[3-(1-Benzofuran-2-yl)imidazo[1,2-b]pyridazin-6-yl](methyl)amino}propan-1-ol]",47
13,"CC(C)CN(CC(O)c1ccccc1)c1ccc2ncc(-c3cc4ccccc4o3)n2n1 (stereo not shown) [Example 20, 2-{[3-(1-Benzofuran-2-yl)imidazo[1,2-b]pyridazin-6-yl](isobutyl)amino}-1-phenylethanol]",48
14,"CC(C)N(CC(O)c1ccccc1)c1ccc2ncc(-c3cc4ccccc4o3)n2n1 (stereo not shown) [Example 21, 2-{[3-(1-Benzofuran-2-yl)imidazo[1,2-b]pyridazin-6-yl](isopropyl)amino}-1-phenylethanol]",52
15,"CN(CC(O)c1ccccc1)c1ccc2ncc(-c3cc4ccncc4o3)n2n1 (stereo not shown) [Example 22, 2-{[3-(Furo[2,3-c]pyridin-2-yl)imidazo[1,2-b]pyridazin-6-yl](methyl)amino}-1-phenylethanol]",1
16,"CN(CC(O)c1ccccc1)c1ccc2ncc(-c3cc4cnccc4o3)n2n1 (stereo not shown) [Example 23, 2-{[3-(Furo[3,2-c]pyridin-2-yl)imidazo[1,2-b]pyridazin-6-yl](methyl)amino}-1-phenylethanol]",1
17,"COc1nccc2oc(-c3cnc4ccc(N(C)CC(O)c5ccccc5)nn34)cc12 (stereo not shown) [Example 24, 2-{[3-(4-Methoxyfuro[3,2-c]pyridin-2-yl)imidazo[1,2-b]pyridazin-6-yl](methyl)amino}-1-phenylethanol]",3
18,"CCOc1nccc2oc(-c3cnc4ccc(N(C)CC(O)c5ccccc5)nn34)cc12 (stereo not shown) [Example 25, 2-{[3-(4-Ethoxyfuro[3,2-c]pyridin-2-yl)imidazo[1,2-b]pyridazin-6-yl](methyl)amino}-1-phenylethanol]",5

# Biological target: T1, human full-length MKNK1
# Assay: MKNK1 kinase assay (TR-FRET, 10 μM ATP)
# Format: biochemical
# Conditions: ATP final conc. 10 μM; 15 min preincubation
# Protocol: MKNK1-inhibitory activity of compounds of the present invention was quantified employing the MKNK1 TR-FRET assay as described in the following paragraphs.
# As substrate for the kinase reaction the biotinylated peptide biotin-Ahx-[…] (C-terminus in amide form) was used which can be purchased e.g. form the company Biosyntan (Berlin-Buch, Germany).
# as §1, with “16.7 μM=>final” for “3.3 mM=>final”, “10 μM)” for “2 mM)”, “45” for “30”, “0.05 μg/ml.” for “0.003 μg/mL.”, “[…]” for “S6”, “AD0071])” for “4D0071])”
# The resulting mixture was incubated for 1 h at 22° C. to allow the formation of complex between the phosphorylated biotinylated peptide and the detection reagents. Subsequently the amount of phosphorylated substrate was evaluated by measurement of the resonance energy transfer from the Eu-chelate to the streptavidine-XL. Therefore, the fluorescence emissions at 620 nm and 665 nm after excitation at 350 nm were measured in a TR-FRET reader, e.g. a Rubystar (BMG Labtechnologies, Offenburg, Germany) or a Viewlux (Perkin-Elmer). The ratio of the emissions at 665 nm and at 622 nm was taken as the measure for the amount of phosphorylated substrate.
row,Compound,IC50 [nM]
1,CCN(CCO)c1ccc2ncc(-c3cc4ccccc4o3)n2n1 [Example 1],7
2,CN(C[C@H](O)c1cccc(O)c1)c1ccc2ncc(-c3cc4ccccc4o3)n2n1 [Example 3],1
3,"COc1cccc2oc(-c3cnc4ccc(N(C)C[C@H](O)c5cccc(O)c5)nn34)cc12 [Example 9, 3-[(1R)-1-Hydroxy-2-{[3-(4-methoxy-1-benzofuran-2-yl)imidazo[1,2-b]pyridazin-6-yl](methyl)amino}eth-yl]phenol]",2
4,"CN(CC(O)c1ccccc1)c1ccc2ncc(-c3cc4ccccc4o3)n2n1 (stereo not shown) [Example 10, 2-{[3-(1-Benzofuran-2-yl)imidazo[1,2-b]pyridazin-6-yl](methyl)amino}-1-phenylethanol]",3
